Assays:
[1] = system: Neuro2a cells; assay: Cytotoxicity on Neuro2a cells, trypan blue assay; type: cell-based, murine; conditions: 48 h; for percentage of live cells compared to the control group: 100 nM
Description: For this experiment, a cell culture medium was prepared. The culture medium consists of a Dulbecco's Modified Eagle Medium (DMEM) marketed by Westburg under the reference LO BE12-604F), comprising 4.5 g/L glucose with L-glutamine, to which 10% of fetal calf serum (FCS) is added. Neuro2a cells (murine neuroblastoma) were introduced into this culture medium.
24-well plates were seeded with 10000 Neuro2a cells per well. After culture for 72 hours (h) in normal conditions, i.e. in an incubator at a temperature of 37° C. at 5% CO2, the Neuro2a cells were treated for 48 h with 5α-hydroxy-6β-[2-(1H-imidazol-4-yl)-ethylamino]-cholestan-3β-yl-propionate and 5α-hydroxy-6β-[2-(1H-imidazol-4-yl)-ethylamino]-cholestan-3β-ol at 100 nM, 1 μM and 10 μM. A control (CTL) is also carried out using the protocol described above but without treatment with the aforementioned compounds. Cell survival is quantified by a trypan blue assay with automatic counting with the Biorad TC20 apparatus (TC20™ Automated Cell Counter). The trypan blue assay is based on the integrity of the cell membrane, which is broken in dead cells. The trypan blue stains the dead cells blue. The Biorad TC20 cell counter counts the proportions of blue cells and non-blue cells, relative to the cell percentages.

[2] = system: BT-474 human mammary tumor cells; assay: Cytotoxicity on BT-474 cells, LDH; type: cell-based; conditions: BT-474, LDH, 48 h; for Mean LogIC50 (±SEM): log of IC50 in μM; for IC50: Homo sapiens, read-out: IC50
Description: For the second method, the percentage viability is determined using assay of the activity of the enzyme LDH (lactate dehydrogenase) in the cellular supernatants using the kit non radioactive cytotoxicity assay kit (Promega). LDH is an enzyme released in the supernatant of dead cells. The higher the LDH activity in the supernatant, the greater is the cell death. In this enzyme test, the LDH released converts a violet tetrazolium salt to formazan, of red color, absorbing at 490 nm. The intensity of the red color is proportional to the number of dead cells. After 48 h of treatment, the supernatants are transferred to a new 96-well plate and are incubated for 30 minutes in the presence of the substrate mix at room temperature. The reaction is stopped using the stop buffer and the absorbance is determined at 490 nm. The percentage cell death is determined here using a control 100% of maximum activity of LDH (carried out with untreated cells incubated in the presence of the lysis solution for 45 minutes at 37° C. just before adding the substrate mix), and the cellular viability in each well is then deduced from this percentage. IC50 is then determined as explained in the preceding paragraph.
The cellular viability tests were also carried out on BT-474 human mammary tumor cells (characterized as being positive triples HER2+, ER+, PR+). The BT-474 cells are in a cell culture medium identical to the preceding example and are seeded in 24-well plates at 70 000 cells per well, for determination of cellular viability using trypan blue, or in 96-well plates at 13 000 cells per well for determination of cellular viability using the MTT or LDH assay. After 96 hours (h) of culture in normal conditions, i.e. in an incubator at a temperature of 37° C. at 5% CO2, the BT-474 cells are treated for 48 h with DX101, DX107, and DX113 at 100 nM, 1 μM, 2.5 μM and 10 μM. A control is also carried out using the protocol described above but without treatment with the molecules DX101, DX107, DX113, DX117, DX119, DX121 or DX131.
After trypsin digestion for 10 minutes at 37° C., cell survival was quantified, also by a trypan blue assay with automatic counting with the Biorad TC20 equipment (TC20™ Automated Cell Counter). The trypan blue assay is based on the cell membrane integrity, which is broken in the dead cells. Trypan blue stains the dead cells blue. The Biorad TC20 cell counter counts the proportion of blue cells and non-blue cells, relative to the cell percentages. The percentage viability is then determined in each well relative to the untreated cells and the IC50 is determined as explained in the preceding example. The percentage viability of the BT-474 cells was determined using the MTT and LDH assay, carried out as described in the preceding example.

[3] = system: 4T1 tumors; assay: Effect on 4T1 tumor growth and survival in vivo; conditions: 4T1 tumors in Balb/c mice, 40 mg/kg by stomach tube every day; for Median survival: Kaplan-Meier; for Inhibition of tumor growth: day 8 vs day 0
Description: All the procedures on the animals were carried out in accordance with the guidelines of our institution after being approved by the ethics committee. The 4T1 cells were cultured as before, and were dissociated in trypsin and washed twice in cold PBS and resuspended in PBS at 1.5 million/mL. The 4T1 tumors were obtained by subcutaneous transplantation of 0.150 million cells in 100 μL in the flank of female Balb/c mice (9 weeks, January). When the tumors reached a volume of 50-100 mm^3, the mice were fed by stomach tube with 40 mg/kg of DX101 or 40 mg/kg of […] or the control vehicle (water). The treatment was carried out every day until the end of the experiment (tumor volume >1000 mm^3). The tumor volume was determined every day using a caliper gauge and calculated from the formula: ½×(Length*Width^2). The percentage inhibition of tumor growth was determined from the following formula: 100×(1−(tumor volume, day 8/tumor volume day 0)DX107)/(1−(tumor volume, day 8/tumor volume day 0)vehicle).
The Kaplan-Meier method was used for comparing the animals' survival.

SMILES	percentage of live cells compared to the control group [1]	percentage cell survival relative to the control group ([1]; 1 μM) [%]	percentage cell survival relative to the control group ([1]; 10 μM) [%]	Mean LogIC50 (±SEM) [2]	IC50 [2] [µM]	Median survival [3] [days]	Inhibition of tumor growth [3] [%]
CC(C)CCC[C@@H](C)[C@H]1CC[C@H]2[C@@H]3C[C@@H](NCCc4c[nH]cn4)[C@@]4(O)C[C@@H](O)CC[C@]4(C)[C@H]3CC[C@]12C [DX101, 5α-hydroxy-6β-[2-(1H-imidazol-4-yl)-ethylamino]-cholestan-3β-ol, reference compound]	unchanged	85.42±4.73	43.25	0.99 ± 0.06	9.72	9	58
CCC(=O)O[C@H]1CC[C@]2(C)[C@H]3CC[C@]4(C)[C@@H]([C@H](C)CCCC(C)C)CC[C@H]4[C@@H]3C[C@@H](NCCc3c[nH]cn3)[C@@]2(O)C1 [DX107, 5α-hydroxy-6β-[2-(1H-imidazol-4-yl)ethylamino]cholestan-3β-yl propionate]	unchanged	84.08±4.09	30.46±5.22	0.95 ± 0.08	8.92	14	78

— patent publication US20240002429A1, “PRODRUG OF 5a-HYDROXY-6ß-[2-(1H-IMIDAZOL-4-YL)ETHYLAMINO]CHOLESTAN-3ß-OL AND PHARMACEUTICAL COMPOSITIONS COMPRISING SAME FOR USE IN THE TREATMENT OF CANCER” (priority 2020, published 2024)
